Measurements from BigSolDB 2.1.

Conditions: in water

N[C@@H](CCC(=O)N[C@@H](CS)C(=O)NCC(=O)O)C(=O)O
Conditions | solubility (mole fraction)
278.15 K | 0.00427
283.15 K | 0.00519
288.15 K | 0.00659
293.15 K | 0.00792
298.15 K | 0.00936
303.15 K | 0.0115
308.15 K | 0.0139
313.15 K | 0.0169
318.15 K | 0.0202
